Measured values taken from paper PMC4459817, “Vasculotide reduces endothelial permeability and tumor cell extravasation in the absence of binding to or agonistic activation of Tie2” (EMBO Molecular Medicine, 2015).

B1: recombinant human Ang1 (rhAng1) (ligand, UniProt Q15389 16-498, looked up)
chain: HIGCSNQRRSPENSGRRYNRIQHGQCAYTFILPEHDGNCRESTTDQYNTNALQRDAPHVEPDFSSQKLQHLEHVMENYTQWLQKLENYIVENMKSEMAQIQQNAVQNHTATMLEIGTSLLSQTAEQTRKLTDVETQVLNQTSRLEIQLLENSLSTYKLEKQLLQQTNEILKIHEKNSLLEHKILEMEGKHKEELDTLKEEKENLQGLVTRQTYIIQELEKQLNRATTNNSVLQKQQLELMDTVHNLVNLCTKEGVLLKGGKREEEKPFRDCADVYQAGFNKSGIYTIYINNMPEPKKVFCNMDVNGGGWTVIQHREDGSLDFQRGWKEYKMGFGNPSGEYWLGNEFIFAITSQRQYMLRIELMDWEGNRAYSQYDRFHIGNEKQNYRLYLKGHTGTAGKQSSLILHGADFSTKDADNDNCMCKCALMLTGGWWFDACGPSNLNGMFYTAGQNHGKLNGIKWHYFKGPSYSLRSTTMMIRPLDF
notes: angiopoietin-1, human, recombinant; also called angiopoietin-1; source: bought: R&D Systems (named for the Boyden chamber experiments)

System: Tie2 in HUVECs
Experiment: in vitro Tie2 phosphorylation (immunoprecipitation/immunoblot), HUVEC
Format: cell-based, human
Details: Ang1 15–400 ng/mL (0.05–1.43 nM), VT 5–100 ng/mL (0.36–7.1 nM), 10, 15 or 45 min, with or without starvation
Excerpt: Figure 7 In vitro Vasculotide vs. Ang1 stimulations: effects on Tie2 receptor phosphorylation in primary endothelial cells—HUVECs (A-E) and HMVEC-DBls (F) • A–F Primary human umbilical vein endothelial cells (HUVECs) or primary human dermal microvascular endothelial cells (HMVEC-DBls) were stimulated at 80% confluency with Vasculotide (treatment), Ang1 (positive control; ligand of Tie2), PBS (vehicle control), or VEGF (negative control; non-ligand of Tie2). Tie2 was immunoprecipitated from cell lysates and immunoblotted for total Tie2 or phosphotyrosine. […] Source data are available online for this figure. […]
Nodule areas were then […]
unit converted (to μm2) and normalized to total lung section area (including air spaces) using ROI measurements from ImageJ software (NIH).
7. Histological assessment of primary tumor viability and hypoxia
5-μm thick sections of PFA-fixed paraffin-embedded mammary fat pad tumors were subjected to: (i) standard hematoxylin and eosin (H&E) staining to visualize viable vs. necrotic regions; or (ii) standard IHC staining with a goat anti-human carbonic anhydrase IX (CAIX or CA9) antibody (R&D Systems AF2188, 1:80 dilution) plus hematoxylin counterstain to visualize hypoxic regions. […]
IHC staining for CAIX further marks a hypoxic band at the edge of the viability rim bordering the necrotic core – the thickness of this hypoxic edge was averaged over 12 measurements spaced 30o apart (see Fig. 5E).
8. Western immunoblotting for total or phosphorylated Tie2
Cultured ECs and TCs were lysed in RIPA lysis buffer as previously described (Bogdanovic et al, 2006).
Lung/ liver/ kidney tissues, which had been snap-frozen in liquid nitrogen once harvested from mice, were homogenized in RIPA lysis buffer (50 mM Tris-HCl pH 7.5, 150 mM NaCl, 1% Igepal, 0.5% sodium deoxycholate, 0.1% SDS, 1 mM Na3VO4 and protease inhibitors) at 4 °C. […]
Semi-quantitative densitometry analysis of immunoblots was performed using the ChemiGenius2 bioimaging system and GeneSnap/GeneTools software (Syngene). […]

Molecule	Tie2 phosphorylation	Tie2 phosphorylation (listed as VT)
CHHHRHSF [Vasculotide, 4-armed maleimide-functionalized polyethylene glycol (PEG) backbone to link together four cysteine-capped T7 peptides, that is, CHHHRHSF]	did not lead to increases in the pTie2/Tie2 ratio	did not lead to any appreciable induction of Tie2 phosphorylation
B1	strongly and consistently activated Tie2 phosphorylation	
